According to patent publication US20160215306A1 (priority 2013, published 2016):
≈ marks a conversion by molar mass, not a printed value. Read-outs that look alike come from different tables or passages of the source.

Tests used:
[1] = test system: Depol™ cellulase (Biocatalysts); test: Cleavage of glucose from resveratrol glucosides by Depol cellulase; assay type: biochemical; conditions: 2 - Depol IFF (cellulase)
EXG1 [2] = molecular target: T1, EXG1 (Saccharomyces cerevisiae, UniProt P23776); test: Cleavage of glucose from resveratrol glucosides by broth enriched with EXG1; assay type: biochemical, S. cerevisiae; conditions: 8 - EXG1 broth
T1 sequence (P23776 41-448): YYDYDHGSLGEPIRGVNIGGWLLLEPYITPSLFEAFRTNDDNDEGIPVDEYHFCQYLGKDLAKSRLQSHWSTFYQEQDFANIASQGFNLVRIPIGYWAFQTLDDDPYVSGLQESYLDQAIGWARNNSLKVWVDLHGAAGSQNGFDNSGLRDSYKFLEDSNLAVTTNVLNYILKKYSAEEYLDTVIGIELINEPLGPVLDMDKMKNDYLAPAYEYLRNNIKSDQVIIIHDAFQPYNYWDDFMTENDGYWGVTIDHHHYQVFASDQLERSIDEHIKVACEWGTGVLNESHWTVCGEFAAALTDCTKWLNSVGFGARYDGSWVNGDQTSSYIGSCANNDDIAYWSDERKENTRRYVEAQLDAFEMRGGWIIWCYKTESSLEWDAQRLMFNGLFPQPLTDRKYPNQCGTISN

[3] = Separate experiment: plasma levels after single oral or IV administration, LC-MS; conditions: for Plasma level of the administered compound after IV administration / Plasma level of the administered compound after oral administration: single dose 10 mL/kg, FIG. 21
[4] = test system: recombinant β-glucosidase (GO16L, IFF); test: Cleavage of glucose from resveratrol glucosides by recombinant β-glucosidase; assay type: biochemical; conditions: 1 - β-glucosidase (IFF)
[5] = test system: β-galactosidase from A. oryzae; test: Cleavage of glucose from resveratrol glucosides by β-galactosidase; assay type: biochemical; conditions: 6 - β-galactosidase A. oryzae
β-glucuronidase = test: Cleavage of glucose from resveratrol glucosides by β-glucuronidase; assay type: biochemical; conditions: 7 - β-glucuronidase
[6] = Solubility in water of purified compounds (H2O saturation, HPLC quantification); conditions: for solubility at 1 min: water, thermodynamic from solid
Glusulase = test: Cleavage of glucose from resveratrol glucosides by Glusulase; assay type: biochemical; conditions: 4 - Glusulase
Cellulase T. reesei = assay type: biochemical
Cellobiase from A. niger = assay type: biochemical
[7] = mouse, in vivo
[8] = Pharmacokinetic profiling: plasma levels after single IV or oral administration; assay type: in vivo, CD1 male mice
[9] = in water; cited from earlier work
EXG1 [10] = test: Cleavage of piceid by S. cerevisiae cells with or without EXG1; conditions: second S. cerevisiae strain (lacking EXG1), 125 mg/L piceid, overnight
EXG1 [11] = molecular target: EXG1 (Saccharomyces cerevisiae, UniProt P23776); test: as above; conditions: S. cerevisiae cells with functional EXG1, 125 mg/L piceid, overnight
[12] = male, CD1, mouse, plasma, intravenous, 10 mg/kg

| Molecule | % cleavage in conditions tested [1] | % cleavage in conditions tested (EXG1 [2]) | Plasma level of the administered compound after IV administration [3] | Plasma level of the administered compound after oral administration [3] | % cleavage in conditions tested [4] | % cleavage in conditions tested [5] | % cleavage in conditions tested (β-glucuronidase) | % cleavage in conditions tested (Glusulase) | % cleavage in conditions tested (Cellulase T. reesei) | % cleavage in conditions tested (Cellobiase from A. niger) | Solubility mg/L (Literatrure) [9] | solubility at 1 min [6] | further results |
| --- | --- | --- | --- | --- | --- | --- | --- | --- | --- | --- | --- | --- | --- |
| OC[C@H]1O[C@@H](Oc2ccc(/C=C/c3cc(O)cc(O)c3)cc2)[C@H](O)[C@@H](O)[C@@H]1O (relative stereo) [Resveratroloside, trans-resveratrol-4′-O-β-glucoside] | ✓ (✓ = >95%) | • (• = 5-49%) | low | low | ✓ (✓ = >95%) | ✓ (✓ = >95%) | ✓ (✓ = >95%) | ✓ (✓ = >95%) |  |  |  |  | Plasma levels of resveratrol after administration of the glucoside ([3]; oral and IV administration): a sharp increase in resveratrol; Solubility mg/L (in house) ([6]; in nanopure H2O, HPLC): 1,300 mg/L |
| OC[C@H]1O[C@@H](Oc2ccc(/C=C/c3cc(O)cc(O[C@@H]4O[C@H](CO)[C@@H](O)[C@H](O)[C@H]4O)c3)cc2)[C@H](O)[C@@H](O)[C@@H]1O (relative stereo) [3,4′-resveratrol diglucoside, trans-resveratrol-3,4′-di-O-β-glucoside] | ✓ (✓ = >95%) | ♦ (♦ = 50-95%) |  |  | ✓ (✓ = >95%) | ✓ (✓ = >95%) | ✓ (✓ = >95%) | ✓ (✓ = >95%) | ✓ (key: ✓ = >95%; ♦ = 50-95%; • = 5-49%; X = 0%) | ✓ (key: ✓ = >95%; ♦ = 50-95%; • = 5-49%; X = 0%) |  |  | Plasma level relative to 3,5-resveratrol diglucoside, oral ([7]; po): approximately 3 fold; Time within which compound was cleared from plasma, oral ([7]; po): ≤ 1 h |
| OC[C@H]1O[C@@H](Oc2cc(O)cc(C=Cc3ccc(O)cc3)c2)[C@H](O)[C@@H](O)[C@@H]1O [Piceid, resveratrol 3-O-β-D-glucopyranoside] | ✓ (✓ = >95%) | ♦ (♦ = 50-95%) |  | detected at a low level | ✓ (✓ = >95%) | ✓ (✓ = >95%) | ✓ (✓ = >95%) | ✓ (✓ = >95%) | ✓ (key: ✓ = >95%; ♦ = 50-95%; • = 5-49%; X = 0%) | ✓ (key: ✓ = >95%; ♦ = 50-95%; • = 5-49%; X = 0%) | 69 mg/L (≈ 177 µM) | 200 to 300 µg/mL (≈ 512 to 768 µM) | Piceid detected in plasma after IV administration ([3]; piceid 17.1 mg/kg IV): approximately 900 ng/mL; Detection of administered compound in plasma after IV administration ([8]; 10 mg/kg IV): detectable; Detection of administered compound in plasma after oral administration ([8]; 10 mg/kg PO): detectable; Systemic conversion to trans-resveratrol ([8]; after IV and oral administration): converted to trans-resveratrol systemically; concentration at 0.25 h ([8]; male, CD1, mouse, plasma, piceid 10 mg/kg IV, 0.25 h, read-out: Piceid (Detection of piceid) in plasma, IV): 2830 ng/mL; concentration at 0.5 h ([8]; male, CD1, mouse, plasma, piceid 10 mg/kg IV, 0.5 h, read-out: Piceid (Detection of piceid) in plasma, IV): 320 ng/mL; concentration at 1 h ([8]; male, CD1, mouse, plasma, piceid 10 mg/kg IV, read-out: Piceid (Detection of piceid) in plasma, IV): 50 ng/mL; concentration at 0.5 h ([8]; male, CD1, mouse, plasma, piceid 10 mg/kg PO, 0.5 h, read-out: Piceid (Detection of piceid) in plasma, PO): 5 ng/mL; concentration at 1 h ([8]; male, CD1, mouse, plasma, piceid 10 mg/kg PO, read-out: Piceid (Detection of piceid) in plasma, PO): 8 ng/mL; concentration at 2 h ([8]; male, CD1, mouse, plasma, piceid 10 mg/kg PO, 2 h, read-out: Piceid (Detection of piceid) in plasma, PO): 4 ng/mL; Piceid cleaved (EXG1 [10]): less than 0.5%; Piceid cleaved, yielding resveratrol (EXG1 [11]): approximately 25% |
| cis/trans-resveratrol-3,5-di-O-β-glucoside [3,5-resveratrol diglucoside] | ✓ (✓ = >95%) | • (• = 5-49%) |  |  | ✓ (✓ = >95%) | ✓ (✓ = >95%) | ✓ (✓ = >95%) | ✓ (✓ = >95%) | ✓ (key: ✓ = >95%; ♦ = 50-95%; • = 5-49%; X = 0%) | ✓ (key: ✓ = >95%; ♦ = 50-95%; • = 5-49%; X = 0%) |  |  | Time of highest plasma level of administered compound, IV ([7]; iv): 1 h; Time within which plasma level declined, IV ([7]; iv): ≤ 4 h; Plasma level of the administered compound after oral administration ([7]; po): high levels; Time within which plasma level declined, oral ([7]; po): ≤ 3 h |
| Oc1ccc(C=Cc2cc(O)cc(O)c2)cc1 [Resveratrol, 3,5,4′-trihydroxy-stilbene] |  |  | an increase in resveratrol plasma levels appeared 4 h post-administration | cleared quickly |  |  |  |  |  |  | 15 to 30 mg/L | 30 to 40 µg/mL (≈ 131 to 175 µM) | concentration at 0.25 h [8, 12]: 40 ng/mL; concentration at 0.5 h [8, 12]: 4 ng/mL |
